Article PMC5218480 (PLoS ONE, 2017)

System: MV-4-11 cells
Assay: Gene expression microarray analysis (Affymetrix PrimeView) and GSEA
Type: cell-based, human
Design: RFU PODN (11730768_x_at) / Fold change /veh PODN (11730768_x_at) / RFU LINC00158 (11744669_a_at) / Fold change /veh LINC00158 (11744669_a_at) / RFU DUSP10 (11751237_a_at) / Fold change /veh DUSP10 (11751237_a_at) / RFU ID3 (11757404_x_at) / Fold change /veh ID3 (11757404_x_at) / RFU PLEKHG5 (11737974_s_at) / Fold change /veh PLEKHG5 (11737974_s_at) / RFU LRRC4B (11730491_at) / Fold change /veh LRRC4B (11730491_at) / RFU GIMAP4 (11747438_a_at) / Fold change /veh GIMAP4 (11747438_a_at) / RFU KRT8 (11758183_x_at) / Fold change /veh KRT8 (11758183_x_at) / RFU CNN1 (11734310_a_at) / Fold change /veh CNN1 (11734310_a_at) / RFU VPS37D (11726825_at) / Fold change /veh VPS37D (11726825_at) / RFU C10orf10 (11716522_x_at) / Fold change /veh C10orf10 (11716522_x_at) / RFU KIR2DL2 /// KIR2DL4 /// KIR2DL5A /// KIR2DL5B /// KIR2DS1 /// KIR2DS2 /// KIR2DS3 /// KIR2DS4 /// KIR3DL3 /// KIR3DL3 /// KIR3DS1 (11738374_at) / Fold change /veh KIR2DL2 /// KIR2DL4 /// KIR2DL5A /// KIR2DL5B /// KIR2DS1 /// KIR2DS2 /// KIR2DS3 /// KIR2DS4 /// KIR3DL3 /// KIR3DL3 /// KIR3DS1 (11738374_at) / RFU C1QL1 (11718748_at) / Fold change /veh C1QL1 (11718748_at) / RFU TMPRSS4 (11747572_a_at) / Fold change /veh TMPRSS4 (11747572_a_at) / RFU HAMP (11756126_x_at) / Fold change /veh HAMP (11756126_x_at) / RFU RNFT2 (11725882_a_at) / Fold change /veh RNFT2 (11725882_a_at) / RFU NR4A2 (11747474_a_at) / Fold change /veh NR4A2 (11747474_a_at) / RFU ABCC12 (11746883_a_at) / Fold change /veh ABCC12 (11746883_a_at) / RFU TMEM136 (11760407_x_at) / Fold change /veh TMEM136 (11760407_x_at) / RFU CLDN22 /// WWC2 (11732394_at) / Fold change /veh CLDN22 /// WWC2 (11732394_at) / RFU HLA-DPB1 (11760878_x_at) / Fold change /veh HLA-DPB1 (11760878_x_at) / RFU SPINT1 (11716480_a_at) / Fold change /veh SPINT1 (11716480_a_at) / RFU GAP43 (11754022_s_at) / Fold change /veh GAP43 (11754022_s_at) / RFU A4GNT (11735810_at) / Fold change /veh A4GNT (11735810_at) / RFU PRB3 (11715151_x_at) / Fold change /veh PRB3 (11715151_x_at) / RFU TUBB4B (11761932_at) / Fold change /veh TUBB4B (11761932_at) / RFU CAPN14 (11732068_a_at) / Fold change /veh CAPN14 (11732068_a_at) / RFU TMCC2 (11721928_a_at) / Fold change /veh TMCC2 (11721928_a_at) / RFU IRGQ (11745062_a_at) / Fold change /veh IRGQ (11745062_a_at) / RFU FAM174B (11720279_a_at) / Fold change /veh FAM174B (11720279_a_at) / RFU TMPRSS4 (11748680_a_at) / Fold change /veh TMPRSS4 (11748680_a_at) / RFU FAM212B (11763350_a_at) / Fold change /veh FAM212B (11763350_a_at) / RFU PLEKHG5 (11743358_a_at) / Fold change /veh PLEKHG5 (11743358_a_at) / RFU ZSCAN30 (11745921_a_at) / Fold change /veh ZSCAN30 (11745921_a_at) / RFU CMKLR1 (11741424_a_at) / Fold change /veh CMKLR1 (11741424_a_at) / RFU LOC101060620 /// MAPK8IP1 (11723275_at) / Fold change /veh LOC101060620 /// MAPK8IP1 (11723275_at) / RFU SPTSSB (11747773_x_at) / Fold change /veh SPTSSB (11747773_x_at) / RFU PRSS12 (11739890_at) / Fold change /veh PRSS12 (11739890_at) / RFU BIN1 (11741810_x_at) / Fold change /veh BIN1 (11741810_x_at) / RFU WNT11 (11732464_a_at) / Fold change /veh WNT11 (11732464_a_at) / RFU C10orf10 (11716521_a_at) / Fold change /veh C10orf10 (11716521_a_at) / RFU C5orf56 (11738089_at) / Fold change /veh C5orf56 (11738089_at) / RFU CYB561 (11721691_x_at) / Fold change /veh CYB561 (11721691_x_at) / RFU ANKRD19P (11752326_a_at) / Fold change /veh ANKRD19P (11752326_a_at) / RFU OR2T12 /// OR2T33 /// OR2T8 (11738714_s_at) / Fold change /veh OR2T12 /// OR2T33 /// OR2T8 (11738714_s_at) / RFU VCAN (11748164_a_at) / Fold change /veh VCAN (11748164_a_at) / RFU JSRP1 (11732532_at) / Fold change /veh JSRP1 (11732532_at) / RFU KRTAP10-11 (11738290_x_at) / Fold change /veh KRTAP10-11 (11738290_x_at) / RFU MYO3A (11730013_a_at) / Fold change /veh MYO3A (11730013_a_at) / RFU EBF3 (11725865_a_at) / Fold change /veh EBF3 (11725865_a_at) / RFU CAMK2N1 (11719241_x_at) / Fold change /veh CAMK2N1 (11719241_x_at) / RFU C5orf56 (11738088_a_at) / Fold change /veh C5orf56 (11738088_a_at) / RFU OLFML3 (11715873_a_at) / Fold change /veh OLFML3 (11715873_a_at) / RFU LOC100653217 /// NTM (11731650_a_at) / Fold change /veh LOC100653217 /// NTM (11731650_a_at) / RFU MAPK11 (11762145_a_at) / Fold change /veh MAPK11 (11762145_a_at) / RFU FIZ1 (11724087_x_at) / Fold change /veh FIZ1 (11724087_x_at) / RFU OASL (11726364_x_at) / Fold change /veh OASL (11726364_x_at) / RFU SOX15 (11748057_x_at) / Fold change /veh SOX15 (11748057_x_at) / RFU CD79A (11719716_a_at) / Fold change /veh CD79A (11719716_a_at) / RFU HIST1H1D (11736915_at) / Fold change /veh HIST1H1D (11736915_at) / RFU CASKIN2 (11723855_a_at) / Fold change /veh CASKIN2 (11723855_a_at) / RFU LOC730098 (11760151_x_at) / Fold change /veh LOC730098 (11760151_x_at) / RFU OR4N2 (11742367_at) / Fold change /veh OR4N2 (11742367_at) / RFU PRRT2 (11749266_a_at) / Fold change /veh PRRT2 (11749266_a_at) / RFU SNX32 (11753110_a_at) / Fold change /veh SNX32 (11753110_a_at) / RFU CDHR5 (11726645_a_at) / Fold change /veh CDHR5 (11726645_a_at) / RFU RCAN1 (11760418_a_at) / Fold change /veh RCAN1 (11760418_a_at) / RFU FAM167A (11723789_a_at) / Fold change /veh FAM167A (11723789_a_at) / RFU FAM26E (11764081_at) / Fold change /veh FAM26E (11764081_at) / RFU ISYNA1 (11749810_s_at) / Fold change /veh ISYNA1 (11749810_s_at) / RFU ACY1 (11761880_at) / Fold change /veh ACY1 (11761880_at) / RFU 11764098_at / Fold change /veh 11764098_at / RFU SAMD14 (11745864_x_at) / Fold change /veh SAMD14 (11745864_x_at) / RFU NPB (11741838_a_at) / Fold change /veh NPB (11741838_a_at) / RFU TMPRSS6 (11731388_a_at) / Fold change /veh TMPRSS6 (11731388_a_at) / RFU KRTAP10-2 (11738614_at) / Fold change /veh KRTAP10-2 (11738614_at) / RFU ARHGAP8 /// PRR5-ARHGAP8 (11727945_x_at) / Fold change /veh ARHGAP8 /// PRR5-ARHGAP8 (11727945_x_at) / RFU KRTAP5-7 /// NADSYN1 (11734609_at) / Fold change /veh KRTAP5-7 /// NADSYN1 (11734609_at) / RFU RASL12 (11751679_a_at) / Fold change /veh RASL12 (11751679_a_at) / RFU CDKN2B (11736163_a_at) / Fold change /veh CDKN2B (11736163_a_at) / RFU PRF1 (11729649_at) / Fold change /veh PRF1 (11729649_at) / RFU, ZNF638 /// ZNF638-IT1 / Fold change vs veh, ZNF638 /// ZNF638-IT1 / RFU, PANK3 / Fold change vs veh, PANK3 / RFU, SH3YL1 / Fold change vs veh, SH3YL1 / RFU, ZEB2 / Fold change vs veh, ZEB2 / RFU, NRIP1 / Fold change vs veh, NRIP1 / RFU, PTTG1IP / Fold change vs veh, PTTG1IP / RFU, CAPN2 / Fold change vs veh, CAPN2 / RFU, MED14 / Fold change vs veh, MED14 / RFU, SNORA58 / Fold change vs veh, SNORA58 / RFU, C1orf63 / Fold change vs veh, C1orf63 / RFU, LRRFIP1 / Fold change vs veh, LRRFIP1 / RFU, NDUFAF7 / Fold change vs veh, NDUFAF7 / RFU, SLC12A2 / Fold change vs veh, SLC12A2 / RFU, IBTK / Fold change vs veh, IBTK / RFU, ESF1 / Fold change vs veh, ESF1 / Fold change vs veh, TMEM50B / RFU, TAOK1 / Fold change vs veh, TAOK1 / RFU, ACBD3 / Fold change vs veh, ACBD3 / RFU, TMA16 / Fold change vs veh, TMA16 / RFU, RWDD3 / Fold change vs veh, RWDD3 / RFU, BCAT1 / Fold change vs veh, BCAT1 / RFU, EDEM3 / Fold change vs veh, EDEM3 / RFU, TMEM33 / Fold change vs veh, TMEM33 / RFU, WDR75 / Fold change vs veh, WDR75 / RFU, AHCTF1 / Fold change vs veh, AHCTF1 / RFU, TFRC / Fold change vs veh, TFRC / RFU, ZDHHC17 / Fold change vs veh, ZDHHC17 / RFU, NOM1 / Fold change vs veh, NOM1 / RFU, ARL8B / Fold change vs veh, ARL8B / RFU, ZBTB11 / Fold change vs veh, ZBTB11 / RFU, TAMM41 / Fold change vs veh, TAMM41 / RFU, KIAA1704 /// LOC100996395 / Fold change vs veh, KIAA1704 /// LOC100996395 / RFU, ING1 / Fold change vs veh, ING1 / RFU, TRMT61B / Fold change vs veh, TRMT61B / RFU, FUBP3 / Fold change vs veh, FUBP3 / RFU, TP53 / Fold change vs veh, TP53 / RFU, TNKS2 / Fold change vs veh, TNKS2 / RFU, ZFP14 / Fold change vs veh, ZFP14 / RFU, ACTR2 / Fold change vs veh, ACTR2 / RFU, PPP3R1 / Fold change vs veh, PPP3R1 / RFU, PIK3R1 / Fold change vs veh, PIK3R1 / RFU, HNRNPA1 / Fold change vs veh, HNRNPA1 / RFU, RNF170 / Fold change vs veh, RNF170 / RFU, ZNF28 / Fold change vs veh, ZNF28 / RFU, RNGTT / Fold change vs veh, RNGTT / RFU, OGT / Fold change vs veh, OGT / RFU, BRD1 / Fold change vs veh, BRD1 / RFU, MARS / Fold change vs veh, MARS / RFU, ZNF655 / Fold change vs veh, ZNF655 / RFU, FAHD1 / Fold change vs veh, FAHD1 / RFU, BDP1 / Fold change vs veh, BDP1 / RFU, LRRCC1 / Fold change vs veh, LRRCC1 / RFU, ARID1A / Fold change vs veh, ARID1A / RFU, ZNF146 / Fold change vs veh, ZNF146 / RFU, ZNF330 / Fold change vs veh, ZNF330 / RFU, GPN3 / Fold change vs veh, GPN3 / RFU, C9orf123 / Fold change vs veh, C9orf123 / RFU, N4BP2L2 / Fold change vs veh, N4BP2L2 / RFU, ARFIP1 / Fold change vs veh, ARFIP1 / RFU, FAM179B / Fold change vs veh, FAM179B / RFU, BCL10 / Fold change vs veh, BCL10 / RFU, UHRF1BP1L / Fold change vs veh, UHRF1BP1L / RFU, BET1 / Fold change vs veh, BET1 / RFU, CNOT2 / Fold change vs veh, CNOT2 / RFU, ZNF268 / Fold change vs veh, ZNF268 / Fold change vs veh, ZNF507 / RFU, DGCR2 / Fold change vs veh, DGCR2 / RFU, WDSUB1 / Fold change vs veh, WDSUB1 / Fold change vs veh, HSP90B1 /// MIR3652 / RFU, ADSS / Fold change vs veh, ADSS / RFU, GK / Fold change vs veh, GK / RFU, ZNF148 / Fold change vs veh, ZNF148 / RFU, TAF9 / Fold change vs veh, TAF9 / RFU, SLC1A5 / Fold change vs veh, SLC1A5 / RFU, SLMO2 / Fold change vs veh, SLMO2 / RFU, ABCC4 / Fold change vs veh, ABCC4 / RFU, LOC101060439 /// RAP1B / Fold change vs veh, LOC101060439 /// RAP1B / RFU, RFX7 / Fold change vs veh, RFX7 / RFU, GTPBP10 / Fold change vs veh, GTPBP10 / RFU, CNEP1R1 / Fold change vs veh, CNEP1R1 / RFU, BIVM-ERCC5 /// ERCC5 / Fold change vs veh, BIVM-ERCC5 /// ERCC5 / RFU, ILF3 / Fold change vs veh, ILF3 / RFU 11762660_at / Fold change /veh 11762660_at / RFU VCAN (11757783_s_at) / Fold change /veh VCAN (11757783_s_at) / RFU DDX43 (11728927_at) / Fold change /veh DDX43 (11728927_at) / RFU KRT8 (11758188_x_at) / Fold change /veh KRT8 (11758188_x_at) / RFU NKD1 (11759106_at) / Fold change /veh NKD1 (11759106_at) / RFU SRD5A1 (11742802_a_at) / Fold change /veh SRD5A1 (11742802_a_at) / RFU TPSAB1 /// TPSB2 (11721975_s_at) / Fold change /veh TPSAB1 /// TPSB2 (11721975_s_at) / RFU GSTM3 (11746129_a_at) / Fold change /veh GSTM3 (11746129_a_at) / RFU IL23R (11737362_x_at) / Fold change /veh IL23R (11737362_x_at) / RFU TMEM51 (11727254_a_at) / Fold change /veh TMEM51 (11727254_a_at) / RFU PIWIL2 (11732686_x_at) / Fold change /veh PIWIL2 (11732686_x_at) / RFU ORM1 (11744905_x_at) / Fold change /veh ORM1 (11744905_x_at) / RFU CCDC152 (11743942_at) / Fold change /veh CCDC152 (11743942_at) / RFU ECM1 (11717891_a_at) / Fold change /veh ECM1 (11717891_a_at) / RFU IL23R (11748794_a_at) / Fold change /veh IL23R (11748794_a_at) / RFU TNFAIP8L3 (11732012_x_at) / Fold change /veh TNFAIP8L3 (11732012_x_at) / RFU MBOAT4 (11741988_at) / Fold change /veh MBOAT4 (11741988_at) / RFU 11764193_at / Fold change /veh 11764193_at / RFU TMEM53 (11763286_at) / Fold change /veh TMEM53 (11763286_at) / RFU MAGEB2 (11727129_at) / Fold change /veh MAGEB2 (11727129_at) / RFU TMEM200A (11744735_a_at) / Fold change /veh TMEM200A (11744735_a_at) / RFU CCDC152 (11751479_a_at) / Fold change /veh CCDC152 (11751479_a_at) / RFU FAM211A (11726209_a_at) / Fold change /veh FAM211A (11726209_a_at) / RFU RGS16 (11746705_a_at) / Fold change /veh RGS16 (11746705_a_at) / RFU VCAN (11755009_s_at) / Fold change /veh VCAN (11755009_s_at) / RFU RHOB (11743442_s_at) / Fold change /veh RHOB (11743442_s_at) / RFU RGS16 (11720943_a_at) / Fold change /veh RGS16 (11720943_a_at) / RFU RGS16 (11720944_at) / Fold change /veh RGS16 (11720944_at) / RFU, VPS4B / Fold change vs veh, VPS4B / RFU, CREB1 / Fold change vs veh, CREB1 / RFU, DNAJC13 / Fold change vs veh, DNAJC13 / RFU, GNAQ / Fold change vs veh, GNAQ / RFU, CDK5R1 / Fold change vs veh, CDK5R1 / RFU, ZRANB3 / Fold change vs veh, ZRANB3 / RFU, CUL4A / Fold change vs veh, CUL4A / RFU, CCNY / Fold change vs veh, CCNY / RFU, UFL1 / Fold change vs veh, UFL1 / RFU, COG3 / Fold change vs veh, COG3 / RFU, DIAPH2 / Fold change vs veh, DIAPH2 / RFU, SKA2 / Fold change vs veh, SKA2 / RFU, AFF3 / Fold change vs veh, AFF3 / RFU, LMF1 / Fold change vs veh, LMF1 / RFU, IPO11 / Fold change vs veh, IPO11 / RFU, DFFB / Fold change vs veh, DFFB / RFU, FOXP1 / Fold change vs veh, FOXP1 / RFU, CARD8 / Fold change vs veh, CARD8 / RFU, STRN3 / Fold change vs veh, STRN3 / RFU, ADK / Fold change vs veh, ADK / RFU, RASSF2 / Fold change vs veh, RASSF2 / RFU, WIPF1 / Fold change vs veh, WIPF1 / RFU, LARP1B / Fold change vs veh, LARP1B / RFU, RASA1 / Fold change vs veh, RASA1 / RFU, RB1 / Fold change vs veh, RB1 / RFU, PPFIA1 / Fold change vs veh, PPFIA1 / RFU, MAT2A / Fold change vs veh, MAT2A / RFU, CCT5 / Fold change vs veh, CCT5 / RFU, WDR92 / Fold change vs veh, WDR92 / RFU, CUX1 / Fold change vs veh, CUX1 / RFU, TTC7A / Fold change vs veh, TTC7A / RFU, TMEM135 / Fold change vs veh, TMEM135 / RFU, DEPTOR / Fold change vs veh, DEPTOR / RFU, CPM / Fold change vs veh, CPM / RFU, DNAJB6 / Fold change vs veh, DNAJB6 / RFU, CACNA2D3 / Fold change vs veh, CACNA2D3 / RFU, DTX4 / Fold change vs veh, DTX4 / RFU, TFCP2 / Fold change vs veh, TFCP2 / RFU, GMCL1 /// GMCL1P1 / Fold change vs veh, GMCL1 /// GMCL1P1 / RFU, AEBP2 / Fold change vs veh, AEBP2 / RFU, SNHG1 /// SNORD22 /// SNORD25 /// SNORD26 /// SNORD27 /// SNORD28 /// SNORD29 /// SNORD31 / Fold change vs veh, SNHG1 /// SNORD22 /// SNORD25 /// SNORD26 /// SNORD27 /// SNORD28 /// SNORD29 /// SNORD31 / Fold change (Aza/veh), C12orf56 (ProbeSet 11735607_a_at) / Fold change (ACY-1035/veh), C12orf56 (ProbeSet 11735607_a_at) / Fold change (Aza/veh), FGFR1OP (ProbeSet 11751329_s_at) / Fold change (ACY-1035/veh), FGFR1OP (ProbeSet 11751329_s_at) / Fold change (Aza/veh), VPS36 (ProbeSet 11739960_a_at) / Fold change (ACY-1035/veh), VPS36 (ProbeSet 11739960_a_at) / RFU SYPL1 (11715823_x_at) / Fold change /veh SYPL1 (11715823_x_at) / RFU IGFBP7 (11715501_s_at) / Fold change /veh IGFBP7 (11715501_s_at) / RFU REEP3 (11722064_at) / Fold change /veh REEP3 (11722064_at) / RFU IGLL1 (11728026_x_at) / Fold change /veh IGLL1 (11728026_x_at): dose or concentration left out as unconfirmed
Conditions: ProbeSet 11753623_s_at; LIST D

Nc1ncn([C@@H]2O[C@H](CO)[C@@H](O)[C@H]2O)c(=O)n1 [azacitidine]
Fold change vs veh, LOC101060439 /// RAP1B: 0.77
